In the supplement of paper PMC10307832:

Columns and labels:
Experiment in all cases: relative viability (nuclei count vs DMSO), 5 days (fraction); higher = more cells survive
NCI-H1651 = details: first compound 0.5 µM
Summary of the method: (§1)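 Relative viability equals treated-well nuclei counts divided by vehicle-well nuclei counts. Counts came from 4× images of lung cancer cell lines grown in 1536-well plates for 5 days after pin-tool dosing on the day after seeding. Dosing used one drug alone or a fixed anchor-drug dose plus five library-drug doses (not always all listed) in √10 steps, and values are medians of duplicate plates.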

BEN = system: BEN
Summary of the method: as §1

NCI-H838 = system: NCI-H838
Summary of the method: as §1

LC-2-ad = system: LC-2-ad
Summary of the method: as §1

LK-2 = system: LK-2
Summary of the method: as §1

NCI-H358 = system: NCI-H358
Summary of the method: as §1

PC-3 [JPC-3] = system: PC-3 [JPC-3]
Summary of the method: as §1

NCI-H1355 = system: NCI-H1355
Summary of the method: as §1

SK-MES-1 = system: SK-MES-1
Summary of the method: as §1

LU99A = system: LU99A
Summary of the method: as §1

NCI-H650 = system: NCI-H650
Summary of the method: as §1

NCI-H2342 = system: NCI-H2342
Summary of the method: as §1

SMILES: COc1cc2nccc(Oc3ccc(NC(=O)Nc4cc(C)on4)c(Cl)c3)c2cc1OC [Tivozanib] + Cc1cc(Nc2cc(N3CCN(C)CC3)nc(Sc3ccc(NC(=O)C4CC4)cc3)n2)n[nH]1 [Tozasertib] (partner 0.1 µM)
- relative viability (NCI-H1651): 0.565
- relative viability (BEN; first compound 0.005 µM): 0.515
- relative viability (BEN; first compound 0.01581 µM): 0.425
- relative viability (BEN; first compound 0.05 µM): 0.572
- relative viability (BEN; first compound 0.5 µM): 0.542
- relative viability (NCI-H838; first compound 0.005 µM): 0.268
- relative viability (NCI-H838; first compound 0.01581 µM): 0.291
- relative viability (NCI-H838; first compound 0.05 µM): 0.29
- relative viability (NCI-H838; first compound 0.5 µM): 0.291
- relative viability (LC-2-ad; first compound 0.005 µM): 0.408
- relative viability (LC-2-ad; first compound 0.01581 µM): 0.486
- relative viability (LC-2-ad; first compound 0.05 µM): 0.484
- relative viability (LC-2-ad; first compound 0.1581 µM): 0.399
- relative viability (LC-2-ad; first compound 0.5 µM): 0.408
- relative viability (LK-2; first compound 0.005 µM): 0.173
- relative viability (LK-2; first compound 0.01581 µM): 0.175
- relative viability (LK-2; first compound 0.05 µM): 0.159
- relative viability (LK-2; first compound 0.1581 µM): 0.172
- relative viability (LK-2; first compound 0.5 µM): 0.177
- relative viability (NCI-H358; first compound 0.005 µM): 0.0936
- relative viability (NCI-H358; first compound 0.01581 µM): 0.101
- relative viability (NCI-H358; first compound 0.05 µM): 0.102
- relative viability (NCI-H358; first compound 0.1581 µM): 0.102
- relative viability (NCI-H358; first compound 0.5 µM): 0.108
- relative viability (PC-3 [JPC-3]; first compound 0.005 µM): 0.802
- relative viability (PC-3 [JPC-3]; first compound 0.01581 µM): 0.869
- relative viability (PC-3 [JPC-3]; first compound 0.05 µM): 0.94
- relative viability (PC-3 [JPC-3]; first compound 0.1581 µM): 0.77
- relative viability (PC-3 [JPC-3]; first compound 0.5 µM): 0.837
- relative viability (NCI-H1355; first compound 0.005 µM): 0.515
- relative viability (NCI-H1355; first compound 0.01581 µM): 0.576
- relative viability (NCI-H1355; first compound 0.05 µM): 0.57
- relative viability (NCI-H1355; first compound 0.1581 µM): 0.614
- relative viability (NCI-H1355; first compound 0.5 µM): 0.53
- relative viability (SK-MES-1; first compound 0.005 µM): 0.801
- relative viability (SK-MES-1; first compound 0.01581 µM): 0.888
- relative viability (SK-MES-1; first compound 0.05 µM): 0.98
- relative viability (SK-MES-1; first compound 0.1581 µM): 0.901
- relative viability (SK-MES-1; first compound 0.5 µM): 0.789
- relative viability (LU99A; first compound 0.005 µM): 0.299
- relative viability (LU99A; first compound 0.01581 µM): 0.279
- relative viability (LU99A; first compound 0.05 µM): 0.307
- relative viability (LU99A; first compound 0.1581 µM): 0.275
- relative viability (LU99A; first compound 0.5 µM): 0.256
- relative viability (NCI-H650; first compound 0.005 µM): 0.763
- relative viability (NCI-H650; first compound 0.01581 µM): 0.743
- relative viability (NCI-H650; first compound 0.05 µM): 0.743
- relative viability (NCI-H650; first compound 0.1581 µM): 0.732
- relative viability (NCI-H650; first compound 0.5 µM): 0.594
- relative viability (NCI-H2342; first compound 0.005 µM): 0.469
- relative viability (NCI-H2342; first compound 0.01581 µM): 0.543
- relative viability (NCI-H2342; first compound 0.05 µM): 0.603
- relative viability (NCI-H2342; first compound 0.5 µM): 0.43
